Laboratory results reported in patent publication US8012979B2, “Compounds and their uses 707” (AstraZeneca AB, priority 2007, dated 2011).

Target: T1, human active recombinant p38α-6His tagged (Homo sapiens, UniProt Q16539)
T1 construct: 6His
Experiment: p38 Alpha Enzyme Assay (AlphaScreen, biotinylated-ATF2 substrate)
Type: biochemical
Details: pre-incubated 4 hours at 37° C., reaction initiated with ATP; 0.5 nM enzyme; read-out: p38 pIC50 (converted)

T1 sequence (Q16539 whole entry): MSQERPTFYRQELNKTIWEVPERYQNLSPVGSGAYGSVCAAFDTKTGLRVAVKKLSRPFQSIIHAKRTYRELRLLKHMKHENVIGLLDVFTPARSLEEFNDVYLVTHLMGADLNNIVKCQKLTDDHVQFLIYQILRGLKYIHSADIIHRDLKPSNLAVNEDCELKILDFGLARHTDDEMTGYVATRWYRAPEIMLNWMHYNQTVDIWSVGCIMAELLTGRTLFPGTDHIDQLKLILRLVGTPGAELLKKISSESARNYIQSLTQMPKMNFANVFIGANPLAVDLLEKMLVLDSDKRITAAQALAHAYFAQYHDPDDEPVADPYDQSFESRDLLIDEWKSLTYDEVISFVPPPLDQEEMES

| SMILES | IC50 [nM] |
| --- | --- |
| Cc1ccc(C(=O)NC2CC2)cc1-c1ccc2c(=O)n(Cc3ccccc3)cc(C(=O)NCCN(C)C)c2c1 [Example 47, 2-Benzyl-6-(5-(cyclopropylcarbamoyl)-2-methylphenyl)-N-(2-(dimethylamino)ethyl)-1-oxo-1,2-dihydroisoquinoline-4-carboxamide] | 1.26 |
| Cc1c(F)cc(C(=O)NC2CC2)cc1-c1ccc2c(=O)n(CC3CC3)cc(CN3CCC[C@@H]3CN)c2c1 [Example 120, (R)-3-(4-((2-(Aminomethyl)pyrrolidin-1-yl)methyl)-2-(cyclopropylmethyl)-1-oxo-1,2-dihydroisoquinolin-6-yl)-N-cyclopropyl-5-fluoro-4-methylbenzamide] | 0.794 |
| Cc1ccc(C(=O)NC2CC2)cc1-c1ccc2c(=O)n(C(C)c3ccccc3)ccc2c1 (centres unmarked) [Example 121, N-Cyclopropyl-4-methyl-3-(1-oxo-2-(1-phenylethyl)-1,2-dihydroisoquinolin-6-yl)benzamide] | 3.98 |
| Cc1ccc(C(=O)NC2CC2)cc1-c1ccc2c(=O)n(CC3CC3)ccc2c1 [Example 122, N-Cyclopropyl-3-(2-cyclopropylmethyl-1-oxo-1,2-dihydro-isoquinolin-6-yl)-4-methylbenzamide] | 1.58 |
| CCC(CC)Cn1ccc2cc(-c3cc(C(=O)NC4CC4)ccc3C)ccc2c1=O [Example 123, N-Cyclopropyl-3-(2-(2-ethylbutyl)-1-oxo-1,2-dihydroisoquinolin-6-yl)-4-methylbenzamide] | 3.16 |
| Cc1ccc(C(=O)NC2CC2)cc1-c1ccc2c(=O)n(CC3CCC3)ccc2c1 [Example 124, 3-(2-(Cyclobutylmethyl)-1-oxo-1,2-dihydroisoquinolin-6-yl)-N-cyclopropyl-4-methylbenzamide] | 3.98 |
| Cc1ccc(C(=O)NC2CC2)cc1-c1ccc2c(=O)n(CC3CCNCC3)ccc2c1 [Example 125, N-Cyclopropyl-4-methyl-3-(1-oxo-2-piperidin-4-ylmethyl-1,2-dihydro-isoquinolin-6-yl)-benzamide] | 63.1 |

Second part, the molecule after the results:

| IC50 [nM] | SMILES |
| --- | --- |
| 10 | Cc1ccc(C(=O)NC2CC2)cc1-c1ccc2c(=O)n(Cc3ccccn3)ccc2c1 [Example 126, N-Cyclopropyl-4-methyl-3-(1-oxo-2-(pyridin-2-ylmethyl)-1,2-dihydroisoquinolin-6-yl)benzamide] |
| 0.158 | Cc1c(F)cc(C(=O)NC2CC2)cc1-c1ccc2c(=O)n(CC3CC3)cc(CN3CCNC(CO)CC3)c2c1 (centres unmarked) [Example 127, N-Cyclopropyl-3-[2-cyclopropylmethyl-4-(5-hydroxymethyl-[1,4]diazepan-1-ylmethyl)-1-oxo-1,2-dihydro-isoquinolin-6-yl]-5-fluoro-4-methyl-benzamide] |
| 0.316 | Cc1c(F)cc(C(=O)NC2CC2)cc1-c1ccc2c(=O)n(CC3CC3)cc(CN3CCC[C@H]3CN)c2c1 [Example 128, (S)-3-(4-((2-(Aminomethyl)pyrrolidin-1-yl)methyl)-2-(cyclopropylmethyl)-1-oxo-1,2-dihydroisoquinolin-6-yl)-N-cyclopropyl-5-fluoro-4-methylbenzamide] |

Test system: not listed separately
Experiment: GVS (Dynamic Vapour Sorption) determination
Type: physicochemical
Details: at 80% RH (±0.2%); crystalline polymorph A
Protocol: GVS profiles were measured using a Dynamic Vapour Sorption DVS-1 instrument. The solid sample ca. 1-5 mg was placed into a glass vessel and the weight of the sample was recorded during a dual cycle step method (40 to 90 to 0 to 90 to 0% relative humidity (RH), in steps of 10% RH).

| SMILES | GVS weight increase [% w/w] |
| --- | --- |
| Cc1ccc(C(=O)NC2CC2)cc1-c1ccc2c(=O)n(Cc3ccccc3)cc(C(=O)NCCN(C)C)c2c1 [Example 47, 2-Benzyl-6-(5-(cyclopropylcarbamoyl)-2-methylphenyl)-N-(2-(dimethylamino)ethyl)-1-oxo-1,2-dihydroisoquinoline-4-carboxamide] | 0.9 |
